Data set [1] has as its target T1, human sphingosine-1-phosphate receptor 1 (S1P1) (Homo sapiens, UniProt P21453). Put plainly: Inhibition of cAMP production (HTRF cAMP HiRange), S1P1 CHO-K1 cells. The class given is cell-based. The note with it: for EC50: read-out: hS1P1 CAMP pEC50 (converted); for Emax: CHO-K1, efficacy normalized to maximum efficacy of fingolimod, read-out: hS1P1 CAMP SPAN. An outline of the steps:
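Intracellular cAMP changes read by TR-FRET (HTRF HiRange, 1 h room temperature) after 30 min compound exposure at 37 °C. Cells: overnight-plated CHO-K1 stably expressing tagged human S1P1 with EA-β-arrestin2. Responses normalized to fingolimod.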
Target sequence in this assay (P21453 whole entry): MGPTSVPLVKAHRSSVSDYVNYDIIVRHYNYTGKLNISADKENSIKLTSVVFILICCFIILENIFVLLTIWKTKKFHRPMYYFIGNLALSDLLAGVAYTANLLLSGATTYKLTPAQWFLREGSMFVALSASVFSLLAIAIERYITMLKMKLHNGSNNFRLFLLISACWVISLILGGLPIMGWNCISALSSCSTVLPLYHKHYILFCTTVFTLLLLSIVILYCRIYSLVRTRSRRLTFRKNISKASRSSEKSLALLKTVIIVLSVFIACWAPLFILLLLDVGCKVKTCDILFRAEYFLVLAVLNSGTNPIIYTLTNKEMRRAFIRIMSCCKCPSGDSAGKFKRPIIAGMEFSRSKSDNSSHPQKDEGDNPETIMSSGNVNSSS

Data set [2] concerns peripheral blood lymphocytes. Put plainly: Lymphopenia: peripheral blood lymphocyte counts, acute and chronic s.c. dosing. The class given is in vivo. The note with it: 7 days, c57bl/6 mice; for Lymphopenia effect (change in peripheral blood lymphocytes): vs vehicle. On the procedure: Compounds were tested for changes in peripheral blood lymphocytes in C57bl/6 mice. In acute studies, animals (n=5/group) were dosed subcutaneously with test compound at a dose of 3 mg/kg. Animals were sacrificed at specific time points and […] of whole blood was collected in EDTA (K2) Eppendorf tubes. Blood was stored on ice and shipped immediately overnight delivery to Charles River Laboratories for analysis. CRL ran samples through their WBC/differential panel on an Advia 120 instrument. We received peripheral lymphocyte counts (10^3 cells/μl) for each blood sample. Treatment group means were compared to a vehicle treatment group for statistical significance. In chronic studies, animals (n=6-8/group) were dosed subcutaneously for three to seven days with test compound at doses that were at least 5-fold higher than the efficacious dose in pharmacology/behavioral assays. On the last day, animals were sacrificed 45 minutes to 6 hrs after the final dose. Whole blood was collected and analyzed as described for acute studies. […]

The target in data set [3] is T1, human sphingosine-1-phosphate receptor 1 (S1P1). Put plainly: β-Arrestin2 recruitment assay (PathHunter), S1P1 CHO-K1 cells. The class given is cell-based. The note with it: for Emax: efficacy normalized to maximum efficacy of fingolimod, read-out: hS1P1 B-arrestin2 SPAN; for EC50: β-arrestin2 recruitment, read-out: hS1P1 B-arrestin2 pEC50 (converted). The gist of the method:
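Agonist-driven β-arrestin2 recruitment measured by β-galactosidase complementation after 60 min compound exposure at 37 °C and 1 h detection at room temperature. Cells: stable CHO-K1 line expressing tagged human S1P1 with EA-β-arrestin2, plated the night before. Data expressed relative to fingolimod.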
Target sequence in this assay (P21453 whole entry): as above
Target sequence in this assay (P32121 whole entry partner): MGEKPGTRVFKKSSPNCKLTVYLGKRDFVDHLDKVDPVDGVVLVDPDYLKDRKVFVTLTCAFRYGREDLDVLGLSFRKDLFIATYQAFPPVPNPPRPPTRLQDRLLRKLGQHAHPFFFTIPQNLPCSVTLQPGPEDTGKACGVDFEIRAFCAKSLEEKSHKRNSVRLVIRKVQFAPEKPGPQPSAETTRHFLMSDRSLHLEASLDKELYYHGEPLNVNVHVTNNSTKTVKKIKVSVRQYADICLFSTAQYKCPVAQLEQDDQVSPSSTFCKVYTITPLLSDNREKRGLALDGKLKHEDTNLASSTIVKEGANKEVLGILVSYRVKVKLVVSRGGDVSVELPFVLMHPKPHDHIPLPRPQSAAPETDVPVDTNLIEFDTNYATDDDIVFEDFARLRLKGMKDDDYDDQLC

The target in data set [4] is human sphingosine-1-phosphate receptor 2 (S1P2) (Homo sapiens, UniProt O95136). Put plainly: Selectivity: inositol monophosphate production (IP-one), S1P2 CHO-K1 cells. The settings on record: for Emax: CHO-K1, efficacy normalized to maximal efficacy of CYM5520, read-out: hS1P2 IP-one SPAN; for EC50: inositol monophosphate accumulation, read-out: hS1P2 IP-one pEC50 (converted). Format: cell-based. On the procedure: (§1) Cell Culturing and Assay Plating Cell lines were cultured in AssayComplete™ Media 6 (DiscoverX Corporation, Cat #: 920018GF2) at 37° C. and 5% CO2 in a humidified CO2 and temperature-controlled incubator. To begin assay plating, cells were washed with Dulbecco's phosphate buffered saline (CellGro, Cat #: 21-031-CV) and lifted from the culturing flask by incubation (37° C., 5 min) with CellStripper (Cellgro, Cat #: 25-056-CI). […] Plated cells were incubated overnight at 37° C. and 5% CO2 in a humidified CO2 and temperature-controlled incubator. Detecting Inhibition of cAMP Production
Sequence of human sphingosine-1-phosphate receptor 2 (S1P2) (O95136 whole entry): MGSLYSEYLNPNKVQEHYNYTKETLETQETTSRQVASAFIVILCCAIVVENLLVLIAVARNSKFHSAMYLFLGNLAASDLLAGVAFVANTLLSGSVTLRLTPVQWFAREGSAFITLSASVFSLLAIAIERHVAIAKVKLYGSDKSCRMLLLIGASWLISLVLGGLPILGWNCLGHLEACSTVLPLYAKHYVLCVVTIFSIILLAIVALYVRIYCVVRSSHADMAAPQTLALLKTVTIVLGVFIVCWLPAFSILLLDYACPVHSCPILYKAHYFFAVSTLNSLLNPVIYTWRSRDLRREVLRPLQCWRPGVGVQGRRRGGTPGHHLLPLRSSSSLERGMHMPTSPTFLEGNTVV
S1P2 Agonist-promoted G-protein responses were determined by measuring changes in intracellular inositol monophosphate using the IP-one TB kit (CisBio, Cat #: 62IPAPEJ) based on time-resolved fluorescence resonance energy transfer (TR-FRET) technology. AssayComplete™ Cell Plating 2 Reagent was removed and replaced with 1× IP-one stimulation buffer (as per manufacturer's instructions) along with test or control compounds at the desired concentrations.
Following a 60-minute incubation at 37° C. and 5% CO2 in a humidified CO2 and temperature-controlled incubator, the components of the IP-one TB kit were added as per the manufacturer's instructions. After an hour incubation at room temperature, plates were analyzed by a BMG PheraStar microplate reader.
(§2) These values are normalized to fimgolimod, a known agonist of the sphingosine-1-phosphate 3 and 5 receptor or CYM5520, a known agonist of the sphingosine-1-phosphate 2 receptor. The tables also include potency values (pEC50) for modulating discrete receptor-mediated activities (inhibition of cAMP production or inositol monophosphate accumulation).

For data set [5], the target named is human sphingosine-1-phosphate receptor 3 (S1P3) (Homo sapiens, UniProt Q99500). In words: Selectivity: inhibition of cAMP production (HTRF), S1P3 CHO-K1 cells. The class given is cell-based. The note with it: for Emax: CHO-K1, efficacy normalized to maximal efficacy of fimgolimod, read-out: hS1P3 cAMP SPAN; for EC50: inhibition of cAMP production, read-out: hS1P3 cAMP pEC50 (converted). On the procedure: as §1
Sequence of human sphingosine-1-phosphate receptor 3 (S1P3) (Q99500 whole entry): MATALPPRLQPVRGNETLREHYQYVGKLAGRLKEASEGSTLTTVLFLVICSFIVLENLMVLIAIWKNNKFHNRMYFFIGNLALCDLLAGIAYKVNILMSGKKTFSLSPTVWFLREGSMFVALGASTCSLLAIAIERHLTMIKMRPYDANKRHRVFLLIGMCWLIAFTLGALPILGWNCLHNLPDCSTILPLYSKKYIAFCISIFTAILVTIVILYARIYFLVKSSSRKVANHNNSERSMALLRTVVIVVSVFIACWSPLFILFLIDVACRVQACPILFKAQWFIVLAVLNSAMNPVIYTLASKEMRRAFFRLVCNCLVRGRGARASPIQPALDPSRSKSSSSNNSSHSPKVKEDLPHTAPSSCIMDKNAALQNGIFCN
(§3) S1P3 and S1P5 Agonist-promoted G-protein responses were determined by measuring changes in intracellular cAMP using the HTRF® cAMP HiRange kit (CisBio, Cat #: 62AM6PEJ) based on time-resolved fluorescence resonance energy transfer (TR-FRET) technology. […] Following a 30-minute room temperature incubation the components of the cAMP HiRange kit were added as per the manufacturer's instructions. After an hour incubation at room temperature, plates were analyzed by a BMG PheraStar microplate reader.
as §2
In general terms: Cyclic AMP is a second messenger, typically raised through Gs and lowered through Gi signalling.

The target in data set [6] is sphingosine-1-phosphate receptor 5 (S1P5) (Homo sapiens, UniProt Q9H228). Put plainly: Selectivity: inhibition of cAMP production (HTRF), S1P5 CHO-K1 cells. The class given is cell-based. The note with it: for Emax: CHO-K1, efficacy normalized to maximal efficacy of fimgolimod, read-out: hS1P5 cAMP SPAN; for EC50: inhibition of cAMP production, read-out: hS1P5 cAMP pEC50 (converted). On the procedure: as §1, §3, §2
Sequence of sphingosine-1-phosphate receptor 5 (S1P5) (Q9H228 whole entry): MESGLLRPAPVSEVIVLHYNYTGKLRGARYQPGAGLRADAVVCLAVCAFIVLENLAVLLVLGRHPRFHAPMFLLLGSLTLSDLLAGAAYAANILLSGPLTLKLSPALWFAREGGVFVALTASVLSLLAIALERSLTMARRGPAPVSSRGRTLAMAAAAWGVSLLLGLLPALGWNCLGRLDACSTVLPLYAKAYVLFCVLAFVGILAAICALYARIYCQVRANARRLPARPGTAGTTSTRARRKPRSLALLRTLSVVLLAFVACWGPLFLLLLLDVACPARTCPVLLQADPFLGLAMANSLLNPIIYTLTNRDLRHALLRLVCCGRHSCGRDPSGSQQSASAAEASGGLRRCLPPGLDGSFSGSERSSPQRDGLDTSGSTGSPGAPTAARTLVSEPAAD

Setting [7] is: inhibition of cAMP production, potency.
Where [8] appears, read: CHO-K1, β-arrestin2 recruitment.
[9] abbreviates: inhibition of cAMP production, S1P1.

The values that follow come from patent US20230114241A1, “METHODS OF TREATING EPILEPSY USING THE SAME” (Trevena, Inc., priority 2019, published 2023).

Structures are written as SMILES.

In the case of `Cc1cnccc1-c1nc(-c2ccc3c(c2)nnn3C(C)C)no1` [Compound 8, 3-(1-isopropyl-1H-benzo[d][1,2,3]triazol-5-yl)-5-(3-methylpyridin-4-yl)-1,2,4-oxadiazole], in data set [1] (setting [7]), the EC50 is more than 0.316 µM. In addition, the “Lymphopenia effect (peripheral blood lymphocytes)” value in data set [2] (6 mg/kg sc) is listed as “no change: 6 mg/kg, 7 days”.

With `CC(C)Oc1ccc(-c2nc(-c3ccc4c(c3)nnn4C(C)C)no2)cc1C#N` [Compound 22, 2-isopropoxy-5-(3-(1-isopropyl-1H-benzo[d] [1,2,3]triazol-5-yl)-1,2,4-oxadiazol-5-yl)benzonitrile], the “Lymphopenia effect (peripheral blood lymphocytes)” value in data set [2] (3 mg/kg sc) was “no change: 3 mg/kg, 7 days”.

Turning to `Cc1ccccc1-c1noc(-c2ccc3c(c2)nnn3CC(C)C)n1` [Compound 96, 5-[3-(2-methylphenyl)-1,2,4-oxadiazol-5-yl]-1-(2-methylpropyl)-1H-1,2,3-benzotriazole], in data set [1] (setting [7]), the EC50 was less than 0.316 µM. Further, the “Lymphopenia effect (peripheral blood lymphocytes)” value in data set [2] (6 mg/kg sc) was “no change: 6 mg/kg, 7 days”.

For `CCC1(CC)CC(=O)c2cc(-c3nc(-c4ccccc4Cl)no3)ccc2O1` [Compound 221, 6-(3-(2-chlorophenyl)-1,2,4-oxadiazol-5-yl)-2,2-diethylchroman-4-one], the Emax was more than 75% in data set [1] (inhibition of cAMP production); more than 75% in data set [3] (setting [8]); less than 50% in data set [4]; less than 50% in data set [5]; less than 50% in data set [6]. In addition, the EC50 in data set [1] (setting [7]) is less than 0.316 µM; in data set [3] (potency), less than 10 µM; in data set [4], more than 10 µM; in data set [5], less than 10 µM; in data set [6], less than 10 µM.

For the compound `C=CCNc1ccc(-c2nc(-c3cn[nH]c3)no2)cc1C#N` [Compound 252, 5-(3-(1H-pyrazol-4-yl)-1,2,4-oxadiazol-5-yl)-2-(allyl-amino)benzonitrile], the Emax in data set [1] (inhibition of cAMP production) was more than 75%; in data set [3] (setting [8]), more than 75%; in data set [4], less than 50%; in data set [5] it was less than 50%; in data set [6], more than 50%. For the same compound, the EC50 in data set [4], in data set [5] and in data set [6] was less than 10 µM each time.

As for `CCC1(CC)CC(=O)c2cc(-c3nc(-c4ccnc(O)c4)no3)ccc2O1` [Compound 263, 2,2-diethyl-6-[3-(2-hydroxy-4-pyridyl)-1,2,4-oxadiazol-5-yl]chroman-4-one], the Emax in data set [1] (inhibition of cAMP production) was more than 75%; in data set [3] (setting [8]) it was more than 75%; in data set [4] it was less than 50%; in data set [5] it was less than 50%; in data set [6], less than 50%. The EC50 in data set [1] (setting [7]) was less than 0.316 µM; in data set [3] (potency), less than 10 µM; in data set [4], more than 10 µM; in data set [5], more than 10 µM; in data set [6] it was more than 10 µM.

As for `C=CCNc1ccc(-c2nc(-c3ccc4sc(N)nc4c3)no2)cc1C#N` [Compound 267, 2-(allylamino)-5-(3-(2-aminobenzo[d]thiazol-5-yl)-1,2,4-oxadiazol-5-yl)benzonitrile], the Emax is less than 75% in data set [1] (inhibition of cAMP production); less than 75% in data set [3] (setting [8]); less than 50% in data set [4]; less than 50% in data set [5]; less than 50% in data set [6]. Moreover, the EC50 in data set [1] (setting [7]) was less than 0.316 µM; in data set [3] (potency), less than 10 µM; in data set [4] it was more than 10 µM; in data set [5], more than 10 µM; in data set [6], more than 10 µM.

Regarding `COc1cnccc1-c1nc(-c2ccc3c(ccn3C(C)C)c2)no1` [Compound 391, 3-(1-isopropyl-1H-indol-5-yl)-5-(3-methoxypyridin-4-yl)-1,2,4-oxadiazole], the Emax in data set [1] was more than 75%; in data set [3] (CHO-K1) it was more than 75%; in data set [4] it was less than 50%; in data set [5] it was more than 50%; in data set [6], less than 50%. The EC50 was less than 0.316 µM in data set [1] (setting [9]); less than 10 µM in data set [3] (S1P1); less than 10 µM in data set [4]; less than 10 µM in data set [5]; less than 10 µM in data set [6].

On to `COc1ccccc1-c1nc(-c2ccc3c(ccn3C(C)C)c2)no1` [Compound 398, 3-(1-isopropyl-1H-indol-5-yl)-5-(2-methoxyphenyl)-1,2,4-oxadiazole], for which the Emax is more than 75% in data set [1]; more than 75% in data set [3] (CHO-K1); less than 50% in data set [4]; less than 50% in data set [5]; less than 50% in data set [6]. Further, the EC50 was less than 0.316 µM in data set [1] (setting [9]); less than 10 µM in data set [3] (S1P1); more than 10 µM in data set [4]; more than 10 µM in data set [5]; more than 10 µM in data set [6].

As for `COc1ccccc1-c1nnc(-c2ccc3c(c2)oc(=O)n3C)o1` [Compound 406, 6-[5-(2-methoxy-phenyl)-1,3,4-oxadiazol-2-yl]-3-methyl-2,3-dihydro-1,3-benzoxazol-2-one], the Emax in data set [1] was more than 75%; in data set [3] (CHO-K1) it was more than 75%; in data set [4] it was less than 50%; in data set [5], less than 50%; in data set [6], less than 50%. Moreover, the EC50 in data set [1] (setting [9]) is less than 0.316 µM; in data set [3] (S1P1) it was less than 10 µM; in data set [4], more than 10 µM; in data set [5], more than 10 µM; in data set [6], more than 10 µM.

Regarding `Cc1ccncc1-c1noc(-c2ccc3c(c2)nnn3C2CCC2)n1` [Compound 417, 1-cyclobutyl-5-[3-(4-methylpyridin-3-yl)-1,2,4-oxadiazol-5-yl]-1H-1,2,3-benzotriazole], the Emax in data set [1] was more than 75%; in data set [3] (CHO-K1), more than 75%; in data set [4] it was less than 50%; in data set [5] it was less than 50%; in data set [6], less than 50%. In addition, the EC50 is less than 0.316 µM in data set [1] (setting [9]); less than 10 µM in data set [3] (S1P1); less than 10 µM in data set [4]; more than 10 µM in data set [5]; more than 10 µM in data set [6].

As to `COc1cc(NC(C)=O)ccc1-c1noc(-c2ccc(NC(C)C)c(C#N)c2)n1` [Compound 731, N-[4-(5-{3-cyano-4-[(propan-2-yl)amino]phenyl}-1,2,4-oxadiazol-3-yl)-3-methoxyphenyl]acetamide], the “Lymphopenia effect (change in peripheral blood lymphocytes)” value in data set [2] (6 mg/kg sc) is given as −78% stat sig: 6 mg/kg, 7 days.

Regarding `CC(C)Nc1ccc(-c2ncc(-c3cccnc3)cn2)cc1C#N` [Compound 737, 2-(isopropylamino)-5-(5-(pyridin-3-yl)pyrimidin-2-yl)benzonitrile], in data set [2] (6 mg/kg sc), the “Lymphopenia effect (change in peripheral blood lymphocytes)” value is recorded as −40% not stat sig: 6 mg/kg, 7 days.
